This test has as its target Serine/threonine-protein kinase PLK1 (Homo sapiens, UniProt P53350). Description: Competitive binding affinity to GFP-HA-fused PLK1 polo box domain expressed in HEK293A cells using biotinylated p-T38 peptide as substrate after 1 hr by ELISA. Details: species or system HEK293-A.

Each structure is given as a SMILES string. Numbered stars: 1 amine (or outer) side, 2 acyl side, 3 side chain; on linkers, the order of the positions; unused ones are H or OH. Square brackets hold non-standard residues; d marks the D form. Peptide text beside a SMILES is read from it. X2 = O=C([C@H](Cc1cn(CCCCCCCCc2ccccc2)c2ccccc12)N[*:1])[*:2]; X1 = O=C([C@H](Cc1cn(CCCCCCCCc2ccccc2)cn1)N[*:1])[*:2]; pT = C[C@@H](OP(=O)(O)O)[C@H](N)C(=O)O

Sequence of Serine/threonine-protein kinase PLK1 (P53350 whole entry, the tested form may be a part): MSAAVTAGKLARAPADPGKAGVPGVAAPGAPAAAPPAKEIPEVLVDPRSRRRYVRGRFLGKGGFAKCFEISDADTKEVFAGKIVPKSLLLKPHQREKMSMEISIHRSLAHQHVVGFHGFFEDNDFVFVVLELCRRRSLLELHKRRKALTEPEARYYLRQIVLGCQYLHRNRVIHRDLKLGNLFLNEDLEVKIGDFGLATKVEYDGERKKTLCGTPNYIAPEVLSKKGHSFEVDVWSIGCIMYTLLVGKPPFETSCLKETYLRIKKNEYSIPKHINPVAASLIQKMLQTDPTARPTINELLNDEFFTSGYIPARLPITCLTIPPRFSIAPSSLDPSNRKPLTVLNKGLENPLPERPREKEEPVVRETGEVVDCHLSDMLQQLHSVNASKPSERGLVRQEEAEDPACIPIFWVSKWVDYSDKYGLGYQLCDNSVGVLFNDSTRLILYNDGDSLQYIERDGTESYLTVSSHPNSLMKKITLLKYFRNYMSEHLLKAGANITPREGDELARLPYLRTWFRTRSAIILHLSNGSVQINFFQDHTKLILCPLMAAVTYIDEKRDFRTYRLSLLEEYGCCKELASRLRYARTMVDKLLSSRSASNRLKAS

For `CC(=O)N1CCC[C@H]1C(=O)N[C@@H](CC(C)C)C(=O)N[C@@H](Cc1cn(CCCCCCCCc2ccccc2)cn1)C(=O)N[C@@H](CO)C(=O)N[C@H](C(N)=O)[C@@H](C)OP(=O)(O)O` (Ac-PL[X1]S[pT]-NH2), the IC50 was determined as 0.32 µM.
The result for `CC(=O)N1CCC[C@H]1C(=O)N[C@@H](CC(C)C)C(=O)N[C@@H](Cc1cn(CCCCCCCCc2ccccc2)c2ccccc12)C(=O)N[C@@H](CO)C(=O)N[C@H](C(N)=O)[C@@H](C)OP(=O)(O)O` (Ac-PL[X2]S[pT]-NH2) reads 9.3 µM.

The record behind these values is ChEMBL document CHEMBL2202993, “Non-proteinogenic amino acids in the pThr-2 position of a pentamer peptide that confer high binding affinity for the polo box domain (PBD) of polo-like kinase 1 (Plk1)” (Bioorg Med Chem Lett, 2012).
